Assays:
Assay in all cases: two-electrode voltage clamp, Xenopus oocytes, heat-normalized AITC-evoked current
DmTRPA1-D = biological target: T1, DmTRPA1-D (Drosophila melanogaster, UniProt H0USS9); format: cell-based; conditions: read-out: TRPA1-DL / DmTRPA1-D
T1 construct: gene TrpA1; full CDS of splice isoform D (cDNA gift from Marco Gallio lab) in pOX(+), cRNA-injected Xenopus laevis oocytes
T1 sequence (H0USS9 1-1231): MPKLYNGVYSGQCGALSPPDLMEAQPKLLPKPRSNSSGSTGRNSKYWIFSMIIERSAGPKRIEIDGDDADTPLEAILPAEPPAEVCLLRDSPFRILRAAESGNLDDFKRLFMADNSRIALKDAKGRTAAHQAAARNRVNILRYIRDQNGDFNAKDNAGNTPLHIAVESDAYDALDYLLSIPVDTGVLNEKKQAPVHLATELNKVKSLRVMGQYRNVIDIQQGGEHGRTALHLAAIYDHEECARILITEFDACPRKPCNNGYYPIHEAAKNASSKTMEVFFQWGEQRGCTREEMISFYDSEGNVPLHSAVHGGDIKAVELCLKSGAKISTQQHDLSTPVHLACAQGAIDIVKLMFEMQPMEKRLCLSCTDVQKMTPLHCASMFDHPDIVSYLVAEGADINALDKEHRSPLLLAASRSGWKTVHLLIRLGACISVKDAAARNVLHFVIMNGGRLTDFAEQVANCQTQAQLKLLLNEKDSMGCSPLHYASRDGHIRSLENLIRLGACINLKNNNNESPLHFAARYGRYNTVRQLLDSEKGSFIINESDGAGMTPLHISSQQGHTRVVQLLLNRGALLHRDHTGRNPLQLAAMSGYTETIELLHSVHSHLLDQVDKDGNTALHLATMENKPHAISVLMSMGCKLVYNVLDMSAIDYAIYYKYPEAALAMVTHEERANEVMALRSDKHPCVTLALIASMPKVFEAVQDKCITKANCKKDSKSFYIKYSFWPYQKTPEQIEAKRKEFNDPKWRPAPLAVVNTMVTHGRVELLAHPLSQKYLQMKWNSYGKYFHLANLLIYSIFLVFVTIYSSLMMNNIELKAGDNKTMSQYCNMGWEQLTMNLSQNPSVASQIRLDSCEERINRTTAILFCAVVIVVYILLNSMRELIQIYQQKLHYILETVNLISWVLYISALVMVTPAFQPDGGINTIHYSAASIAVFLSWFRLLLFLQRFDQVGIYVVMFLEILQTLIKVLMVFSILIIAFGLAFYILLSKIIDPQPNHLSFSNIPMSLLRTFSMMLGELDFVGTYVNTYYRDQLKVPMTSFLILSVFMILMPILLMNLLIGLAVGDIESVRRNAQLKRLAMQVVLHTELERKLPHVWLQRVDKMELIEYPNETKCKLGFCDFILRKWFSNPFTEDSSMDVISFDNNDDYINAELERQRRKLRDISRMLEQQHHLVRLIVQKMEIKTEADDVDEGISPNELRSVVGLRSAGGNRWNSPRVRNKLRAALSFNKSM
Description: two-electrode voltage clamp, Xenopus oocytes, heat-normalized AITC-evoked current on DmTRPA1-D

SpTRPA1-CL = system: T2, SpTRPA1-CL; format: cell-based, Scaptomyza pallida; conditions: agonist (electrophile); ND96 pH 7.4, -60 mV; after prior heat stimulus (>40 °C); read-out: TRPA1-CL / SpTRPA1-CL
T2 construct: gene TrpA1; full CDS of splice isoform CL (cDNA from adult labella) in pOX(+), cRNA-injected Xenopus laevis oocytes
Description: two-electrode voltage clamp, Xenopus oocytes, heat-normalized AITC-evoked current on SpTRPA1-CL

SfTRPA1-CL = system: T3, SfTRPA1-CL; format: cell-based, Scaptomyza flava; conditions: agonist (electrophile); ND96 pH 7.4, -60 mV; after prior heat stimulus (>40 °C); read-out: TRPA1-CL / SfTRPA1-CL
T3 construct: gene TrpA1; full CDS of splice isoform CL (artificial synthesis, Genscript) in pOX(+), cRNA-injected Xenopus laevis oocytes
Description: two-electrode voltage clamp, Xenopus oocytes, heat-normalized AITC-evoked current on SfTRPA1-CL

DmTRPA1-C = biological target: T4, DmTRPA1-C (Drosophila melanogaster, UniProt G8IQ59); format: cell-based; conditions: read-out: TRPA1-CL / DmTRPA1-C
T4 construct: gene TrpA1; full CDS of splice isoform C (cDNA from third-instar larva whole body) in pOX(+), cRNA-injected Xenopus laevis oocytes
T4 sequence (G8IQ59 1-1232): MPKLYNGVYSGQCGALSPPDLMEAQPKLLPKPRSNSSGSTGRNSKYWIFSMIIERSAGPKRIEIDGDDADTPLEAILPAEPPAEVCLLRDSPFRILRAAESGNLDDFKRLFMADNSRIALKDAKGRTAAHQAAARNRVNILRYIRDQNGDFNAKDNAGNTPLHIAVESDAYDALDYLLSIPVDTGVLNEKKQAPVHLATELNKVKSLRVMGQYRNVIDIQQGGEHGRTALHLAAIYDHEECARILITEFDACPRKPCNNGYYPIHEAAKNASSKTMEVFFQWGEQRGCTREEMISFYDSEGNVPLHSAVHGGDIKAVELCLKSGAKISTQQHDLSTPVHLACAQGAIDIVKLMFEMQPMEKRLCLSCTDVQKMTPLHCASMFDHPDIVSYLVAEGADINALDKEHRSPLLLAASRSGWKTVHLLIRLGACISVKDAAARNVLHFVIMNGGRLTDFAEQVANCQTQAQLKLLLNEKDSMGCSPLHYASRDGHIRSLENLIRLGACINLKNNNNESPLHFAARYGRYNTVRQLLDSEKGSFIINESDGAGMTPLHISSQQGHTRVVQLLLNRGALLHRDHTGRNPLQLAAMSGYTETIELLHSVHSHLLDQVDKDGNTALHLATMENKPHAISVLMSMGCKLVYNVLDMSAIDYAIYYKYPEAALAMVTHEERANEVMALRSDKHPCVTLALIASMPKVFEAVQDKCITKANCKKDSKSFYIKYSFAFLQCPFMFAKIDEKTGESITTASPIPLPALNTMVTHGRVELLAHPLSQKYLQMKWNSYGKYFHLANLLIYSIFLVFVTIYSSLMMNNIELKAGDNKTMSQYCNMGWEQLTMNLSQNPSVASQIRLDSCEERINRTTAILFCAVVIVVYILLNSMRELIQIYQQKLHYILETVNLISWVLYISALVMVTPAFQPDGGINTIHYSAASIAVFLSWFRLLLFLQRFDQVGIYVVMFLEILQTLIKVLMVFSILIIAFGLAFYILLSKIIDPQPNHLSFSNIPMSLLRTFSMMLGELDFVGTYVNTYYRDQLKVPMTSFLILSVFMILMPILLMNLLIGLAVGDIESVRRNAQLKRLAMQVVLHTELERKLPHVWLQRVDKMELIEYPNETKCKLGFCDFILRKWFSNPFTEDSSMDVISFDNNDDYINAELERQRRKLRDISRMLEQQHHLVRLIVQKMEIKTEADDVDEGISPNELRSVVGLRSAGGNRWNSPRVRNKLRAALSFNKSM
Description: two-electrode voltage clamp, Xenopus oocytes, heat-normalized AITC-evoked current on DmTRPA1-C

SfTRPA1-DL = system: T5, SfTRPA1-DL; format: cell-based, Scaptomyza flava; conditions: agonist (electrophile); ND96 pH 7.4, -60 mV; after prior heat stimulus (>40 °C); read-out: TRPA1-DL / SfTRPA1-DL
T5 construct: gene TrpA1; full CDS of splice isoform DL (artificial synthesis, Genscript) in pOX(+), cRNA-injected Xenopus laevis oocytes
Description: two-electrode voltage clamp, Xenopus oocytes, heat-normalized AITC-evoked current on SfTRPA1-DL

SpTRPA1-DL = system: T6, SpTRPA1-DL; format: cell-based, Scaptomyza pallida; conditions: agonist (electrophile); ND96 pH 7.4, -60 mV; after prior heat stimulus (>40 °C); read-out: TRPA1-DL / SpTRPA1-DL
T6 construct: gene TrpA1; full CDS of splice isoform DL (cDNA from adult tarsi) in pOX(+), cRNA-injected Xenopus laevis oocytes
Description: two-electrode voltage clamp, Xenopus oocytes, heat-normalized AITC-evoked current on SpTRPA1-DL

C=CCN=C=S [allyl isothiocyanate]
EC50 (DmTRPA1-D): 341 ± 92 µM | EC50 (SpTRPA1-CL): 29 ± 15 µM | EC50 (SfTRPA1-CL): 65 ± 55 µM | EC50 (DmTRPA1-C): 8.6 ± 4.3 µM | EC50 (SfTRPA1-DL): 316 ± 31 µM | EC50 (SpTRPA1-DL): 103 ± 15 µM
